The values that follow are results of earlier work, collected in patent publication US20250312496A1, “PROSTATE SPECIFIC MEMBRANE ANTIGEN (PSMA) LIGANDS” (Deutsches Krebsforschungszentrum Stiftung des öffentlichen …, priority 2022, published 2025).

In the data set the test system is prostate cancer.

For `O=C(O)CC[C@H](NC(=O)N[C@@H](CCCCNC(=O)[C@H](Cc1ccc2ccccc2c1)NC(=O)[C@H]1CC[C@H](CNC(=O)CN2CCN(CC(=O)O)CCN(CC(=O)O)CCN(CC(=O)O)CC2)CC1)C(=O)O)C(=O)O` [225Ac-PSMA-617, metal not drawn], the PSA value entry (both patients) is given as “fell below the detectability limit”. Besides, the response of patients result (two patients with extremely advanced and end-stage disease) is recorded as “complete remission”.
